Source: patent publication US20220127297A1, “Novel Antibacterial 3"-Derivatives Of 4,6-Disubstituted 2,5-Dideoxystreptamine Aminoglycoside Antibiotics” (AGILeBiotics B.V., priority 2018, published 2022)
In brackets after ≈: the same amount, converted by molar mass.

Tests used:
E. coli (AAC(3)III) = assay: MIC 50, broth micro-dilution, E. coli expressing AAC(3)III; format: cell-based, Escherichia coli
Text: Cloning resistant enzymes. An Escherichia coli codon optimized gene encoding AAC(3)-III (GenBank acc.nr. X55652.1; SEQ ID NO:1), including a promoter and terminator sequence, was synthesized by Integrated DNA Technologies, Belgium. The synthesized gene and pBluescript II KS(+) plasmid were digested using the restriction enzymes SacI and SalI, and purified from a 1% TBE-agarose gel using the illustra Gel Band purification kit. The purified linear plasmid and T4 DNA ligase were used to ligate aac(3)-III under control of the constitutive lipoprotein Ipp promoter and ribosomal RNA rrnC terminator, resulting in pBlue_Ipp_aacC3_rrnC.
(§1) Plasmid transformation. Approximately 500 ng of the pET-9b(+) (Cat. No. 69432-3, Merck), pAT21-1 (provided by Prof. Dr. Patrice Courvalin, M.D., Pasteur Institute, France; prepared according to Trieu-Cuot et. al, Mol. Gen. Genet. 198(2), 348 (1985)), pBluescript::AAC(6′)-Ie/APH(2″)-Ia (provided by Prof. Dr. Sergei Vakulenko, M.D., University of Notre Dame, Ind., USA; prepared according to S. B. Vakulenko et. al., J. Biol. Chem. 287 (52), 43262 (2012)), pBlue_lpp_aacC3_rrnC and pSET152 (Cat. No. PVT3395, Life Science Market; prepared according to Bierman et al., Gene 116 (1), 43 (1992)) plasmids, encoding APH(3′)-Ia (SEQ ID NO:2), APH(3′)-IIIa (SEQ ID NO:3), AAC(6′)Ie-APH(2″)-Ia (SEQ ID NO:4), AAC(3)-III (SEQ ID NO:1), and AAC(3)-IV (SEQ ID NO:5) respectively, were individually incubated in a vial of competent cells for 15 min on ice. The cells were subsequently heated to 42° C. for 90 s, and cooled on ice for 1 min. After addition of 900 μL LB, the cells were incubated for 1 h at 37° C. and 200 rpm. Cells were plated on LB-agar supplemented with 50 μg/mL KanaA and incubated for 18 h at 37° C. The next day, a single colony was inoculated in 5 mL LB supplemented with 50 μg/mL and grown for 18 h at 37° C. and 200 rpm. A 200 μL sample of each culture was diluted with 200 μL of 40% v/v glycerol in water, and stored at −80° C. The plasmid was purified from the remaining culture using the Plasmid Miniprep kit. Plasmid DNA was investigated by Eurofins Genomics (Germany) to confirm the identity of the aminoglycoside resistance genes.
(§2) 3.1 Against E. coli Strains
(§3) Tested reference compounds. Amikacin sulfate (Cat. No. 01693, Chem-Impex), Gentamicin sulfate (Cat. No. G4918, Sigma Aldrich).
(§4) Microbial strains. E. coli ATCC 25922, E. coli ATCC 25922/pET-9b(+), E. coli ATCC 25922/pAT21-1, E. coli ATCC 25922/pBluescript::AAC(6′)-Ie/APH(2″)-Ia, E. coli ATCC 25922/pBlue_lpp_aacC3_rrnC, E. coli ATCC 25922/pSET152.
(§5) Culture media and equipment. BBL™ Mueller Hinton Broth 2 (Lot. BCBW1143, Cat. No. 70192, Sigma); Kanamycin A (Cat. No. A1493, AppliChem); 96-well deep well plate, 1 mL (Cat. No. 0030506.200, Eppendorf); Plate lids (Cat. No. 0030131.525, Eppendorf); 96-well plate, F-bottom (Cat. No. 781602, Brand; Incubator, Infors Multitron Pro); Laminar flow (Heraeus KS12); UV/VIS meter (Eppendorf BioPhotometer Plus); Platereader (Tecan Sunrise).
(§6) Compound preparation. Compounds were prepared in MH2 media at a concentration of 5 mM and stored at 4° C. For testing, solutions of 128 μM were prepared in MH2. Out of these working solutions, 400 μL was transferred to wells in the first column of 96-well deep well plates. Each compound was transferred in triplicate. Plates were previously filled with 200 μL of MH2 media in all wells except for the wells in the first column. After compound and antibiotic addition, the compounds were serial two-fold diluted by transferring 200 μL from the first to the second column, then from the second to the third column and so on. Finally, 200 μL was removed from the last column.
Inoculum preparation. Microorganisms used were all revived from 20% glycerol (40% v/v glycerol in water was diluted with MH2) storage at −80° C. by inoculating them in 5 mL MH2. inoculums of E. coli containing a plasmid were selected for by adding 50 μg/mL KanaA.

E. coli (APH(3′)Ia) = assay: MIC 50, broth micro-dilution, E. coli expressing APH(3′)Ia; format: cell-based, Escherichia coli
Method: as §1, §2, §3, §4, §5, §6
Inoculum preparation. Microorganisms used were all revived from 20% glycerol (40% v/v glycerol in water was diluted with MH2) storage at −80° C. by inoculating them in 5 mL MH2. inoculums of E. coli containing a plasmid were selected for by adding 50 μg/mL KanaA. The Inoculums were grown to an optical density (measured by UV/Vis spectroscopy) of 0.6-0.8 at 600 nm. Out of these suspensions, actual inoculums were prepared by diluting them to an optical density (OD) of 0.1 in MH2 media. From these inoculums, 200 μL was transferred to each well, resulting in a final compound concentration range of 64 μM-31.3 nM. All plates were incubated at 900 rpm and 70% rH for 18 h at 37° C.
MIC determination. After 18 h of growth, 200 μL was transferred to a 96-well F-bottom plate. The optical density was determined by a plate reader at 600 nm, with 10 s shaking before reading. Triplicate measurements were averaged, and a growth curve was plotted in Microsoft Excel. […]

[1] = Escherichia coli, ATCC25922, ATCC25922 harboring plasmid encoding AAC(3)III
[2] = Escherichia coli, ATCC25922, ATCC25922 harboring plasmid encoding APH(3′)Ia
[3] = ATCC25922 harboring plasmid encoding AAC(3)III
[4] = ATCC25922 harboring plasmid encoding APH(3′)Ia

SMILES	MIC50 (E. coli (AAC(3)III); [1]) [µM]	MIC50 (E. coli (APH(3′)Ia); [2]) [µM]	MIC50 (E. coli (AAC(3)III); [3]) [µM]	MIC50 (E. coli (APH(3′)Ia); [4]) [µM]
N=C(NCCO)NC1[C@@H](O)C(OC2[C@@H](F)[C@H](O[C@H]3OC(CN)[C@@H](O)CC3N)C(N)C[C@H]2NC(=O)[C@@H](O)CCN)O[C@H](CO)[C@H]1O (stereo partly shown) [ABX5029, Tobra-AHB-F-Gua 2-hydroxy-ethyl]	0.5 (≈ 0.328 µg/mL)	2 (≈ 1.31 µg/mL)	–	–
N=C(NCC1CCCO1)NC1[C@@H](O)C(OC2[C@@H](F)[C@H](O[C@H]3OC(CN)[C@@H](O)CC3N)C(N)C[C@H]2NC(=O)[C@@H](O)CCN)O[C@H](CO)[C@H]1O (stereo partly shown) [ABX5046, Tobra-AHB-F-Gua tetrahydrofuran-2-yl methyl]	0.5 (≈ 0.348 µg/mL)	1 (≈ 0.697 µg/mL)	–	–
N=C(N)NC1[C@@H](O)C(OC2[C@@H](F)[C@H](O[C@H]3OC(CN)[C@@H](O)[C@H](O)C3N)C(N)C[C@H]2NC(=O)[C@@H](O)CCN)O[C@H](CO)[C@H]1O (stereo partly drawn) [ABX4004, 3′epi-KanaB-AHB-F-Gua]	–	–	0.5 (≈ 0.314 µg/mL)	4 (≈ 2.51 µg/mL)
N=C(NCc1ccncc1)NC1[C@@H](O)C(OC2[C@@H](F)[C@H](O[C@H]3OC(CN)[C@@H](O)CC3N)C(N)C[C@H]2NC(=O)[C@@H](O)CCN)O[C@H](CO)[C@H]1O (stereo partly shown) [ABX5048, Tobra-AHB-F-Gua pyridin-4-yl methyl]	0.5 to 1 (≈ 0.352 to 0.704 µg/mL)	1 (≈ 0.704 µg/mL)	–	–
NCC[C@H](O)C(=O)N[C@@H]1CC(N)[C@@H](O[C@H]2OC(CN)[C@@H](O)[C@@H](O)C2N)[C@H](O)C1OC1O[C@H](CO)[C@@H](O)C(N)[C@H]1O (stereo partly drawn) [ABX4002, 3′Epi-KanaB-AHB]	–	–	4 (≈ 2.34 µg/mL)	8 to 16
N=C(NCC1CC1)NC1[C@@H](O)C(OC2[C@@H](F)[C@H](O[C@H]3OC(CN)[C@@H](O)CC3N)C(N)C[C@H]2NC(=O)[C@@H](O)CCN)O[C@H](CO)[C@H]1O (stereo partly shown) [ABX5027, Tobra-AHB-F-Gua cyclopropylmethyl]	0.25 (≈ 0.167 µg/mL)	1 (≈ 0.667 µg/mL)	–	–
N=C(N)NC1C(O)[C@@H](CO)OC(OC2C(F)[C@H](O[C@H]3OC(CN)[C@@H](O)CC3N)C(N)C[C@H]2NC(=O)[C@@H](O)CCN)[C@@H]1O (stereo partly shown) [ABX5006, Tobra-AHB-F-Gua]	0.25 (≈ 0.153 µg/mL)	0.5 (≈ 0.306 µg/mL)	–	–
N=C(N)NC1[C@@H](O)C(OC2[C@@H](O)[C@H](O[C@H]3OC(CN)[C@@H](O)CC3N)C(N)C[C@H]2NC(=O)[C@@H](O)CCN)O[C@H](CO)[C@H]1O (stereo partly shown) [ABX5005, Tobra-AHB-Gua]	–	–	0.5 (≈ 0.305 µg/mL)	2 to 4
N=C(NC[C@@H]1CCCN1)NC1[C@@H](O)C(OC2[C@@H](F)[C@H](O[C@H]3OC(CN)[C@@H](O)CC3N)C(N)C[C@H]2NC(=O)[C@@H](O)CCN)O[C@H](CO)[C@H]1O (stereo partly drawn) [ABX5026, Tobra-AHB-F-Gua (S) pyrrolidine-2-yl-methyl]	0.25 (≈ 0.174 µg/mL)	1 (≈ 0.696 µg/mL)	–	–
N=C(NCc1cnc[nH]1)NC1[C@@H](O)C(OC2[C@@H](F)[C@H](O[C@H]3OC(CN)[C@@H](O)CC3N)C(N)C[C@H]2NC(=O)[C@@H](O)CCN)O[C@H](CO)[C@H]1O (stereo partly shown) [ABX5050, Tobra-AHB-F-Gua imidazol-5-yl methyl]	1 (≈ 0.693 µg/mL)	2 (≈ 1.39 µg/mL)	–	–
N=C(NC[C@@H]1CCNC1)NC1[C@@H](O)C(OC2[C@@H](F)[C@H](O[C@H]3OC(CN)[C@@H](O)CC3N)C(N)C[C@H]2NC(=O)[C@@H](O)CCN)O[C@H](CO)[C@H]1O (stereo partly drawn) [ABX5039, Tobra-AHB-F-Gua (R) pyrrolidine-3-ylmethyl]	0.25 (≈ 0.174 µg/mL)	0.25 (≈ 0.174 µg/mL)	–	–
NCCC(O)C(=O)NC1CC(N)C(OC2OC(CN)C(O)C(O)C2N)C(O)C1OC1OC(CO)C(O)C(N)C1O (stereo not shown) [ABX4001, KanaB-AHB]	–	–	1 to 2	8 (≈ 4.68 µg/mL)
N=C(N)NC1[C@@H](O)C(OC2[C@@H](O)[C@H](O[C@H]3OC(CN)[C@@H](O)[C@H](O)C3N)C(N)C[C@H]2NC(=O)[C@@H](O)CCN)O[C@H](CO)[C@H]1O (stereo partly shown) [ABX4009, KanaB-AHB-Gua]	–	–	1 to 2	8 (≈ 5.01 µg/mL)
NCC[C@H](O)C(=O)N[C@@H]1C[C@H](N)[C@@H](O[C@H]2O[C@H](CN)[C@@H](O)[C@@H](O)[C@H]2O)[C@H](O)[C@H]1O[C@H]1O[C@H](CO)[C@@H](O)[C@H](N)[C@H]1O [ABX3002, 3′Epi-KanaA-AHB]	–	–	16 (≈ 9.37 µg/mL)	32 (≈ 18.7 µg/mL)
N=C(N)NC1[C@@H](O)C(OC2[C@@H](F)[C@H](O[C@H]3OC(CN)[C@@H](O)[C@H](O)C3N)C(N)C[C@H]2NC(=O)[C@@H](O)CCN)O[C@H](CO)[C@H]1O (stereo partly shown) [ABX4006, KanaB-AHB-F-Gua]	0.25 (≈ 0.157 µg/mL)	–	–	1 to 2
N=C(NC[C@H]1CNCCO1)NC1[C@@H](O)C(OC2[C@@H](F)[C@H](O[C@H]3OC(CN)[C@@H](O)CC3N)C(N)C[C@H]2NC(=O)[C@@H](O)CCN)O[C@H](CO)[C@H]1O (stereo partly drawn) [ABX5043, Tobra-AHB-F-Gua (R) morpholin-2-yl methyl]	0.25 (≈ 0.178 µg/mL)	0.5 to 1 (≈ 0.356 to 0.712 µg/mL)	–	–
NCCC(O)C(=O)NC1CC(N)C(OC2OC(CN)C(O)C(O)C2O)C(F)C1OC1OC(CO)C(O)C(N)C1O (stereo not drawn) [ABX3005, 3′Epi-KanaA-AHB-F]	–	–	4 (≈ 2.35 µg/mL)	8 to 16
NCC[C@H](O)C(=O)N[C@@H]1CC(N)[C@@H](O[C@H]2OC(CN)[C@@H](O)CC2N)[C@H](F)C1OC1O[C@H](CO)[C@@H](O)C(N)[C@H]1O (stereo partly shown) [ABX5024, Tobra-AHB-F]	–	–	1 (≈ 0.571 µg/mL)	2 to 4
NCCC(O)C(=O)NC1CC(N)C(OC2OC(CN)C(O)C(O)C2N)C(F)C1OC1OC(CO)C(O)C(N)C1O (stereo not shown) [ABX4007, KanaB-AHB-F]	–	–	1 (≈ 0.587 µg/mL)	4 (≈ 2.35 µg/mL)
NCC[C@H](O)C(=O)N[C@@H]1CC(N)[C@@H](O[C@H]2OC(CN)[C@@H](O)CC2N)[C@H](O)C1OC1O[C@H](CO)[C@@H](O)C(N)[C@H]1O (stereo partly shown) [ABX5004, Tobra-AHB]	–	–	1 (≈ 0.569 µg/mL)	4 to 8
